14 compounds from patent US20260152480A1, “POLYCYCLIC COMPOUND AND USE THEREOF” (TYK MEDICINES , INC., priority 2022, published 2026) can be followed below.

Structures are written as SMILES. Read-outs that look alike come from different tables or passages of the source. Some results are limits rather than exact numbers.

For data set [1], the system named is Human pleural mesothelioma cells NCI-H226. In words: Proliferation inhibition assay of human pleural mesothelioma cells NCI-H226 (CCK8). In kind it is cell-based. To be noted: 72 h, 3 days incubation. An excerpt:
Experimental Example 1 Cell Anti-Proliferation Test
Proliferation Inhibition Assay of Human Pleural Mesothelioma Cells NCI-H226 by YAP-TEAD Inhibitor Compounds
Experimental materials and equipment: Human pleural mesothelioma cells NCI-H226 were purchased from Nanjing Cobioer Biosciences CO., LTD. RPMI-1640 medium (Bio-Channel), DMSO (dimethyl sulfoxide), CCK8 (WST-8) cell analysis kit (Beyotime), 0.25% EDTA-Tripsin (trypsin solution), 1×PBS (phosphate buffer, PH7.2), 96-well plate (Corning), fetal bovine serum (FBS), 10,000 U/mL penicillin-G/streptomycin, high-speed cryo-centrifuge (EPPENDORF 5810R), enzyme-linked immunoassay (Tecan Spark).
• A) Tumor cells were cultured in RPMI-1640 (containing 10% FBS and 100 U/mL penicillin-G/streptomycin) at 37° C., 5% CO^2 and saturated humidity until 80-90% density. • B) Removed the culture medium from 10 cm Petri dishes; • C) Rinsed the cells once with 10 ml 1×PBS; • D) Added 4 ml 0.25% EDTA-Tripsin into 37° C., 5% CO^2 incubator for trypsin digestion for 5 minutes, transferred to 15 ml centrifuge tube, centrifuged at 200 g for 5 minutes, discarded the supernatant to get cell precipitate; • E) Resuspend with 4 ml DMEM medium, count and adjust to 10,000 cells/ml. • F) Added cell suspension to 96-well plate with 100 μL per well volume and incubate overnight at 37° C., 5% CO^2 incubator.
• A) Preparation of gradient dilution solution of tested compounds: the test compounds were configured into 1 mM reservoir solution. Then 1.5 μl of the reservoir solution was dissolved in 1.5 ml of DMSO-free culture solution, and then a 3-fold serial gradient dilution was performed with 0.1% DMSO culture solution for a total of 9 concentrations, and the concentrations of the compounds after dilution were as follows: • 333.33 nM, 111.11 nM, 37.03 nM, 12.35 nM, 4.15 nM, 1.37 nM, 0.46 nM, 0.15 nM • B) After thorough mixing, 100 μL of culture compound solution was taken separately to replace the culture solution in the cell culture plate, with 4 replicate wells for each concentration; • C) The cells were transferred to the incubator and incubated for 3 days.
• A) Removed the cell culture plate and added 10 μl of CCK-8 (WST-8) solution per well in the biosafety cabinet. • B) Placed the cell culture plate back into the incubator and continued incubation for 3 hours. • C) Determined the absorbance value by selecting 450 nm on a TECAN enzyme-linked immunoassay detector.
The cell viability (% Cell Viability) was calculated using the following formula.
[formula] • A (dosing): absorbance of wells with cells, CCK8 solution and drug solution • A (blank): absorbance of wells with medium and CCK8 solution but no cells • A (0 dosing): absorbance of wells with cells, CCK8 solution and no drug solution • Cell viability: Cell proliferation viability or cytotoxicity viability IC50 values were obtained by curve fitting with GraphPad Prism 8 software.

The test system of data set [2] is YAP-TEAD. In words: Nano luciferase method to detect YAP-TEAD inhibitor activity (293T cells transfected with pGL3B-8×GTiiC-nLuc-CMV-fLuc). The data set is classed as cell-based. To be noted: Homo sapiens, HEK-293T, transfected 293T cells, 48 hours incubation, read-out: Nano Luciferas detection (IC50). An excerpt: Experimental Example 2 Nano Luciferase Method to Detect YAP-TEAD Inhibitor Activity
(1) Experimental materials and equipment: 293T cells were purchased from Nanjing Cobioer Biosciences CO., LTD. DMEM medium (high sugar, phenol red free, Bio-Channel), DMSO (dimethyl sulfoxide), Lipo6000™ transfection reagent (Beyotime), pGL3B-8×GTiiC-nLuc-CMV-fLuc plasmid, 0.25% EDTA Tripsin (trypsin solution), 1×PBS (phosphate buffer, PH7.2), 96-well white cell culture plate (PerkinElmer), Fetal Bovine Serum (FBS), 10,000 U/mL penicillin-G/streptomycin, High-speed cryo-centrifuge (EPPENDORF 5810R), 37° C. CO^2 incubator, Vi-Cell® cell counter, Envision microplate reader (PerkinElmer).
Resuscitated 293T cells were inoculated into 10 cm petri dishes and placed in a 5% CO^2 incubator at a constant temperature of 37° C. To ensure transfection efficiency, cells in the logarithmic phase (cell density of about 50%-70%) should be used.
One day before transfection, cells in logarithmic phase were digested with Trypsin-EDTA, the reaction was terminated by adding medium, and the cell suspension was made by blowing and mixing with a pipette.
The cell concentration was determined using Vi-cell and diluted to a suspension of 5*10^5 cells per milliliter. Once the cell suspension was prepared, it was gently mixed and 10 ml of liquid was added to a 10 cm petri dish. […] The cells were incubated in a 5% CO^2 incubator at 37° C. for 1 day.
Take two clean and sterile centrifuge tubes, added 750 μL of opti-MEM Medium without antibiotics and serum respectively, then added […] of plasmid (pGL3B-8×GTiiC-nLuc-CMV-fLuc) to one of the tubes and gently blown with a pipette for mixing; the other tube was added with Lipo6000 transfection reagent and gently blown with a pipette for mixing. After standing at room temperature for 5 minutes, the culture medium containing DNA was gently added to the culture medium containing Lipo6000 transfection reagent, mixed by gently inverting the centrifuge tube, and stood at room temperature for 5 minutes.
The above mixture was added evenly dropwise to a 10-cm petri dish and replaced with fresh complete medium after 6 h of incubation.
After 1 day of transfection, Trypsin EDTA was used to digest the cells, medium was added to terminate the reaction, and a cell suspension was made by blowing and mixing with a pipette.
Cell concentration was determined using Vi-cell, and diluted to a suspension of 20,000 cells per milliliter.
After the cell suspension was prepared, it was gently mixed and 100 μL was added to each well in a 96-well plate so that the density of cells to be measured was 2000 per well.
The inoculated cell culture plates were incubated in an incubator, and the compounds in concentration gradients were added after about 24 hours.
The 10 mM compound reservoir solution was diluted to 50 μM with culture medium, and 50 μM compound solution was added sequentially to the third column of the deep-well plate, and 216 μL of culture medium containing 0.5% DMSO to the fourth to eleventh columns.
Gradient dilution: 100 μL of solution was pipetted from the third column and added to the fourth column, after mixing; another 100 μL of solution was pipetted from the fourth column and added to the fifth column, and the operation was repeated until the eleventh column.
Using a multichannel pipette, 25 μL of compound solution was pipetted from the deep-well plate and added to the 96-well culture plate, and each compound was repeated four times on the 96-well plate. A concentration gradient with a maximum concentration of 10,000 nM, 1:3.16, was eventually formed on the 96-well plate.
The 96-well plate was incubated in a 5% CO^2 incubator at a constant temperature of 37° C. for 48 hours, then removed and equilibrated at room temperature for 10 minutes.
100 μL of detection reagent was added to each well and placed on a horizontal shaker at low speed for 10 minutes to fully lyse the cells. […]

A short description of data set [3]: Pharmacokinetic study of the drug, oral administration to rats (plasma, cerebrospinal fluid, brain tissue). In kind it is in vivo. To be noted: SD rat, 10 mg/kg, single; for Kp: brain tissue (post perfusion) and plasma, read-out: B/P value; for Kp uu: in vivo, read-out: Kpuu Value; for AUC(0-inf) / AUC(0-t) / Cmax / MRT last / Tmax: plasma. From the text:
Experimental Example 3 Pharmacokinetic Study of the Drug
Oral Administration Solvent: 5% DMSO+10% Solutol HS15+85% Saline
Oral administration preparation process: weighed the appropriate amount of powder, added the appropriate volume of DMSO, vortex, then added the appropriate volume of Solutol solution, vortex, and added the appropriate amount of saline, vortex ultrasound into a homogeneous and clarified state of the preparation solution.
The animal room was equipped with an air-conditioning system and well ventilated, and the indoor temperature was maintained in the range of 20-26° C., and the humidity was maintained in the range of 40%-70%. The animal room was artificially illuminated with 12 hours of light and 12 hours of dark (except for the working light that needed to be turned on for experimental operation and cleaning), and the experimental animals were free to feed and drink.
Animals were purchased and fed normally for at least 3 days, and rats that were examined by a veterinarian and had qualified physical conditions were enrolled in this experiment; each rat was labeled with a tail mark. Animals in the oral administration group were fasted overnight the day before administration, and resumed feeding and drinking freely 4 hours after administration.
Before administration, checked the state of the administered preparation, ensured the homogeneity of the preparation by vortexing, stirring or oscillating, and calculated the theoretical volume of the administered drug for each SD rat in each group according to the following formula.
Mode of administration: Oral administration to rats, fasted overnight prior to administration.

The mark [4] stands for this setting: reference compounds of WO2009081259A1.

By IC50 is commonly meant the midpoint of a concentration-inhibition curve. In general, AUC(0-inf) refers to total exposure, with the tail of the curve extrapolated. Broadly, the AUC(0-t) is exposure summed from dosing to a finite time, without extrapolation to infinity. The term Cmax denotes the maximum level reached in the sampled fluid or tissue. By MRT last is commonly meant a mean duration of stay, worked out from the concentration-time curve. For orientation: Tmax means the time at which the peak concentration occurs. Regarding `C=CC(=O)N1CCC(c2cc(-c3cnn(C)c3)cnc2Nc2ccc(C(F)(F)F)cc2)CC1` [Compound T61], in data set [1], the IC50 lay in the range of 1000 to 5000 nM. For the same compound, the IC50 in data set [2] was at most 100 nM. Also, in data set [3], the “HL—” value was found to be 2.95 h, the Kp amounted to 0.56, the Kp uu amounted to 0.038 and the AUC(0-inf) was found to be 13200 ng·h/mL. Besides, in data set [3], the AUC(0-t) came out at 10800 ng·h/mL, the Cmax was 1960 ng/mL, the MRT last came out at 3.49 h and the Tmax stood at 2.67 h.

Compound `C=CC(=O)N1CCC(c2cccnc2Nc2ccc(C(F)(F)F)cc2)CC1` [Compound T1] had an IC50 in data set [1] of at most 100 nM. Besides, the IC50 in data set [2] is at most 100 nM. In addition, in data set [3], the “HL—” value was determined as 1.93 h, the AUC(0-inf) is 5260 ng·h/mL, the AUC(0-t) was 5250 ng·h/mL and the peak level (Cmax) was 919 ng/mL. Moreover, in data set [3], the MRT last came to 4.28 h and the Tmax was found to be 1.33 h.

Consider `C=CC(=O)N1CCC(c2cc(Cl)cnc2Oc2ccc(C(F)(F)F)cc2)CC1` [Compound T40], for which the IC50 in data set [1] is at most 100 nM. In addition, the IC50 in data set [2] was at most 100 nM. In data set [3], the “HL—” value was 4.40 h, the Kp was 1.88, the Kp uu stood at 0.286 and the AUC(0-inf) worked out at 18000 ng·h/mL. Moreover, in data set [3], the AUC(0-t) worked out at 17500 ng·h/mL, the Cmax came to 1650 ng/mL, the MRT last was 6.75 h and the Tmax came to 1.67 h.

Consider `C=CC(=O)N1CCC(c2cc(-c3cc[nH]n3)cnc2Nc2ccc(C(F)(F)F)cc2)CC1` [Compound T92], for which the IC50 in data set [1] was in the range of 100 to 1000 nM. Further, in data set [2], the half-maximal inhibitory concentration (IC50) is at most 100 nM. For the same compound, in data set [3], the “HL—” value stood at 1.59 h, the AUC(0-inf) is 4830 ng·h/mL, the AUC(0-t) was 4770 ng·h/mL and the Cmax worked out at 901 ng/mL. In data set [3], the MRT last was 3.8 h and the Tmax stood at 2.67 h.

In the case of `C=CC(=O)N1CCC(c2nccnc2Oc2ccc(C(F)(F)F)cc2)CC1` [Compound T58], the IC50 in data set [1] was at most 100 nM. The IC50 in data set [2] is at most 100 nM. Also, in data set [3], the “HL—” value is listed as 2.67 h, the Kp was 2.01, the Kp uu was found to be 0.269 and the AUC(0-inf) is 7560 ng·h/mL. In data set [3], the AUC(0-t) was found to be 7540 ng·h/mL, the peak level (Cmax) was 1180 ng/mL, the MRT last is 5.81 h and the Tmax was determined as 2 h.

`C=CC(=O)N1CCC(c2c(Nc3ccc(C(F)(F)F)cc3)ncc3ccccc23)CC1` [Compound T37] showed an IC50 in data set [1] of 100 to 1000 nM. The 50% inhibitory concentration (IC50) in data set [2] lay in the range of 100 to 1000 nM. In data set [3], the “HL—” value worked out at 13.97 h, the AUC(0-inf) is 18000 ng·h/mL, the AUC(0-t) is 12300 ng·h/mL and the Cmax turned out to be 804 ng/mL. Also, in data set [3], the MRT last came out at 9.85 h and the Tmax was determined as 4.67 h.

For the compound `Cc1ccc(C2CCNCC2)c(Nc2ccc(C(F)(F)F)cc2)n1` [Reference compound 2, reference compound], the IC50 in data set [1] (setting [4]) and in data set [2] (setting [4]) was above 5000 nM each time.

As for `C=CC(=O)N1CC=C(c2cccnc2Nc2ccc(C)cc2)C1` [Compound T14], the IC50 in data set [1] and in data set [2] was at most 100 nM throughout.

Take `C=CC(=O)N1CCC(c2nccnc2Nc2ccc(C(F)(F)F)cc2)C1` (stereo not shown) [Compound T18]: the IC50 in data set [1] and in data set [2] was at most 100 nM in each case.

As for `FC(F)(F)c1ccc(Nc2ncccc2C2CCNCC2)cc1` [Reference compound 3, reference compound], the IC50 in data set [1] (setting [4]) and in data set [2] (setting [4]) was above 5000 nM each time.

With `C=CC(=O)N1CCC(c2cc(-c3cccnc3)cnc2Nc2ccc(C(F)(F)F)cc2)CC1` [Compound T96], the IC50 in data set [1] fell in the range of 1000 to 5000 nM; in data set [2] it was 100 to 1000 nM.

As for `C=CC(=O)N1CCC(c2c(C)ccnc2Nc2ccc(C(F)(F)F)cc2)CC1` [Compound T23], the IC50 in data set [1] and in data set [2] was at most 100 nM throughout.

With `C/C=C/C(=O)N1CCC(c2cccnc2Nc2ccc(C(F)(F)F)cc2)CC1` [Compound T53], the IC50 in data set [1] is 1000 to 5000 nM; in data set [2], 100 to 1000 nM.

In the case of `C=CC(=O)N1CCC(c2cccnc2Nc2ccc(C)cc2)C1` (stereo not shown) [Compound T13], the IC50 in data set [1] and in data set [2] was at most 100 nM each time.
